# According to PubChem BioAssay (NCI):
# “And” between values parts separate entries of the source, which are not always exact repeats. Equal entries are not always repeated.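 Five concentrations, 48 hours, 96-well plates. GI50 is the concentration that inhibits growth by half. Definition used: TGI = concentration required for complete inhibition of growth.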
# How the values were obtained:
# Test in all cases: NCI-60 cell line screen, 48 h
# HOP-62 NSCLC = tested on: HOP-62 NSCLC
# OVCAR-8 ovarian = tested on: OVCAR-8 ovarian
# A549 NSCLC = tested on: A549 NSCLC
# SR leukemia = tested on: SR leukemia
# HCC-2998 colon = tested on: HCC-2998 colon
# ACHN renal = tested on: ACHN renal
# HCT-15 colon = tested on: HCT-15 colon
# U251 CNS = tested on: U251 CNS
# NCI-H23 lung = tested on: NCI-H23 lung
# UACC-257 melanoma = tested on: UACC-257 melanoma
SMILES,GI50 (HOP-62 NSCLC),TGI (HOP-62 NSCLC),GI50 (OVCAR-8 ovarian),TGI (OVCAR-8 ovarian),GI50 (A549 NSCLC),TGI (A549 NSCLC),GI50 (SR leukemia),TGI (SR leukemia),GI50 (HCC-2998 colon),TGI (HCC-2998 colon),GI50 (ACHN renal),TGI (ACHN renal),GI50 (HCT-15 colon),TGI (HCT-15 colon),GI50 (U251 CNS),TGI (U251 CNS),GI50 (NCI-H23 lung),TGI (NCI-H23 lung),GI50 (UACC-257 melanoma),TGI (UACC-257 melanoma)
O=C1NC(=O)C(c2c[nH]c3ccccc23)=C1c1ccccc1,> 25 µM,> 25 µM,> 25 µM,> 25 µM,> 25 µM,> 25 µM,> 25000 nM,> 25 µM,> 25 µM,> 25 µM,> 25 µM,> 25 µM,> 25 µM,> 25 µM,> 25 µM,> 25 µM,> 25 µM,> 25 µM,> 25 µM,> 25 µM
Cn1cnc([N+](=O)[O-])c1Sc1nc2ccc([N+](=O)[O-])cc2[nH]1,–,> 100 µM,–,39.2 µM,–,> 100 µM,–,41.5 µM,–,29.2 µM,–,> 100 µM,–,38.8 µM,–,> 100 µM,–,72 µM,–,33.5 µM
O=C(O)COc1ccc(C(=O)/C(SS/C(C(=O)c2ccc(OCC(=O)O)c(Cl)c2Cl)=C2\C=C(c3ccccc3Cl)SS2)=C2/C=C(c3ccccc3Cl)SS2)c(Cl)c1Cl,–,> 100 µM,–,> 100 µM,–,> 100 µM,–,6.91 µM,–,> 100 µM,–,> 68.9 µM,–,> 54.6 µM,–,36.5 µM,–,60.2 µM,–,> 83.1 µM
O=C1/C(=C/c2ccccc2[N+](=O)[O-])COc2ccc(O)c(O)c21,3.55 µM,14.5 µM,0.525 µM,18.6 µM,2.61 µM,12.4 µM,476 nM,> 100 µM,1.56 µM,3.16 µM,0.278 µM,0.863 µM,0.286 µM,1.15 µM,0.922 µM,5.76 µM,1.54 µM,5.22 µM,1.42 µM,4.06 µM
C=C1C(=O)C2(C)OC2(C)C1C(=O)O (stereo not given),–,> 100 µM,–,> 100 µM,–,> 100 µM,–,> 100 µM,–,> 100 µM,–,> 100 µM,–,> 100 µM,–,> 100 µM,–,> 100 µM,–,> 100 µM
COc1ccc(/C=C2\CCC(Cc3ccccc3)(CN(C)C)C2=O)cc1 (stereo not given),–,> 100 µM,–,> 100 µM,–,> 100 µM,–,54 µM,–,> 100 µM,–,> 100 µM,–,> 70.7 µM,–,> 100 µM,–,> 100 µM,–,66.2 µM
CC1(C)OC(=O)C(=Cc2ccc([N+](=O)[O-])s2)C(=O)O1,–,35.1 µM,–,31.3 µM,–,> 100 µM,–,6.31 µM,–,24.7 µM,–,27.3 µM,–,14.2 µM,–,30.4 µM,–,39.1 µM,–,35.8 µM
FC(F)(F)c1ccc(NCc2nc3ccccc3[nH]2)cc1,28.8 µM,96.4 µM,27.5 µM,> 100 µM,27.7 µM,> 100 µM,28300 nM,> 100 µM,23.8 µM,73.5 µM,34.5 µM,> 100 µM,32.7 µM,> 100 µM,27.5 µM,> 100 µM,22.9 µM,80.2 µM,23.5 µM,67.9 µM
N=C1C(c2nc3ccccc3s2)=C(O)CN1c1cc(Cl)cc(Cl)c1,46.7 µM,> 100 µM,> 100 µM,> 100 µM,> 100 µM,> 100 µM,> 100000 nM,> 100 µM,> 100 µM,> 100 µM,> 100 µM,> 100 µM,0.705 µM,> 100 µM,32.3 µM,> 100 µM,> 100 µM,> 100 µM,40.2 µM,> 100 µM
CS(=O)(=O)N1CCc2c(-c3cnc(N)nc3)nc(N3CCOCC3)nc21,1.26 µM and 0.795 µM,> 10 µM and 11.8 µM,1.65 µM and 0.984 µM,> 10 µM and 14 µM,0.644 µM and 0.413 µM,> 10 µM and 5.45 µM,2080 nM and 1960 nM,> 100 µM,0.923 µM and 0.794 µM,> 73.5 µM,0.735 µM and 0.677 µM,> 100 µM,0.397 µM and 0.419 µM,> 100 µM,1.7 µM and 1.27 µM,> 10 µM and 23 µM,1.94 µM and 1.37 µM,> 100 µM,0.809 µM and 0.446 µM,6.85 µM and 3.8 µM
Cn1cc(C2=C(c3c(S(C)=O)n(C)c4ccccc34)C(=O)NC2=O)c2ccccc21 (stereo not given),8.34 µM,> 25 µM,12.3 µM,> 25 µM,9.24 µM,> 25 µM,2550 nM,24.3 µM,18.9 µM,> 25 µM,8.83 µM,> 25 µM,7.38 µM,> 25 µM,8.64 µM,> 25 µM,9.79 µM,> 25 µM,> 25 µM,> 25 µM
CC(C)[C@H](C(=O)O[C@@H]1/C=C/C(=O)O[C@@H](C)CCC/C=C/[C@@H]2C[C@H](O)C[C@H]21)N(C)C,17.2 µM,> 100 µM,13.2 µM,> 68.9 µM,14.6 µM,> 94.4 µM,14900 nM,33.8 µM,12.9 µM,62.2 µM,35.2 µM,> 100 µM,14.1 µM,34.5 µM,20.3 µM,> 100 µM,16.8 µM,> 83.6 µM,15.2 µM,71.1 µM
CC1CC(c2ccc(Cl)c(Cl)c2)=Nc2ccccc2S1 (stereo not given),–,> 100 µM,–,> 100 µM,–,> 100 µM,–,> 100 µM,–,> 100 µM,–,> 100 µM,–,> 100 µM,–,> 100 µM,–,> 100 µM,–,> 100 µM
CCCc1n(Cc2ccc3ccccc3n2)cc[n+]1Cc1ccc2ccccc2n1,4.17 µM,17.9 µM,3.16 µM,12.3 µM,7.73 µM,> 100 µM,635 nM,12.7 µM,0.985 µM,14.8 µM,33.4 µM,> 100 µM,37.9 µM,> 100 µM,1.51 µM,12.3 µM,0.819 µM,14.2 µM,0.778 µM,4.84 µM
CN1CCc2cc3c4cc2C1Cc1ccc(cc1)Oc1cc(ccc1O)CC1c2c(cc(O)c(c2O4)O3)CCN1C (stereo not given),–,11.2 µM,–,8.55 µM,–,6.11 µM,–,> 100 µM,–,4.11 µM,–,20.7 µM,–,4.27 µM,–,3.16 µM,–,13.5 µM,–,4.04 µM
